Read-outs that look alike come from different tables or passages of the source.
Columns and labels:
Male, Wistar rats [1] = test: Schedule-induced polydipsia; type: in vivo, rat; conditions: for Effect on excessive drinking / amount of water consumed / Effect on number of responses emitted (lever pressing for food): acute dosing; for Effect of antagonist on the decrease in excessive water consumption produced by CPD 1: CPD 1 5.6 mg/kg
Description: Rats were used in these experiments as they have been utilized for such studies in the past with great success in generating significant polydipsia ([16]). Male, Wistar rats were singly housed, and maintained at approximately 85% of their free-feeding weights with free access to water. Twelve adult male, Wistar rats (Harlan Industries, Indianapolis, IN, USA) were used. They were allowed to acclimate to our vivarium for at least 3 days prior to testing. They were 2 months old at the start of the experiments that lasted approximately 6–8 months and were without explicit experimental experience prior to this study. The rats were singly housed, and maintained at approximately 86–91% of their free-feeding weights with post session supplemental feeding of Lab Diet #5001 for rodents (PMI Nutrition International Inc., St. Louis, MO, USA). Body weights were corrected for the normal growth curve of Wistar rats such that actual body weight of each rat increased over the experimental time frame. Water was available continuously in the individual home cages. Rats were inspected daily 7 days/week by experimenters and veterinary staff.
The experiments were conducted using operant behavior test chambers ENV-007 (Med Associates Inc., Georgia, VT, USA), 30.5 cm × 24.1 cm × 29.2 cm. The test chambers were contained within light and sound attenuating shells. A food trough was mounted 2 cm off the grid floor on the centerline. Two response levers were centered 8 cm off the centerline and 7 cm off the grid floor. Three lights were located above each response lever at 15 cm off the grid floor. All events were controlled and lever-press data were recorded by a Compaq computer running MED-PC Version IV (Med Associates Inc., Georgia, VT, USA). The water bottle located within each chamber was weighed before and after experimental sessions.
Experimental sessions lasted 90 min. Test compounds or drug vehicle were administered on Tuesdays and Fridays, given the stability of performance (within 15% variation of the individual animal). Non-injection, control performances were on Thursdays. […] Dose-effect curves and drug interaction data were created by repeated testing in groups of five to eight rats. Test compounds were administered as described in figure legends. The effects of the compound are expressed as a percent of control for each individual animal. Results were analyzed by ANOVA followed by Dunnett’s multiple comparison (p < 0.05).
Thus, in keeping with the guidelines of animal care and use followed here, we utilized the minimum number of animals required for signal detection.

Male, NIH Swiss mice [2] = test: Rotarod performance; type: in vivo, mouse
Description: Mice were not pretrained on this task.

Male, NIH Swiss mice [3] = conditions: 12/dose group
Male, NIH Swiss mice [4] = conditions: mouse, in vivo, 60 min
Male, NIH Swiss mice [5] = test: Nestlet-shredding; conditions: 8/dose group
Male, Wistar rats [6] = test: Isoproterenol-induced drinking; type: in vivo, rat; conditions: (±)-isoproterenol 30 μg/kg, s.c.
Protocol: Male, Wistar rats (different from those rats used in the schedule-induced polydipsia studies) were used. They were 331 ± 11 g at the initiation of this study. Compound 1 (5.6 mg/kg, s.c.) was evaluated for its ability to reduce drinking. (±)-isoproterenol (30 μg/kg, s.c.) was given to induce drinking (n = 5–20 rat/group). Ten minutes after vehicle or (±)-isoproterenol injection, rats were given either vehicle or Compound 1 and a 60 min session began in which the rats in individual housing cages were given access to water 20 min after the second injection. The weight of the water bottle before and after the 60 min period was measured to the nearest 0.1 g. After the experiment, the animals were returned to their living cages with continuous access to food and water.

h5-HT2A = molecular target: T1, h5-HT2A (Homo sapiens, UniProt P28223); test: GTP-γ-[35S] functional assay (SPA), AV12 cells; type: biochemical; conditions: GTPgs functional assay, human recombinant cell line
T1 construct: expressed in transfected cells; host or cells: AV12 cells
T1 sequence (P28223 whole entry): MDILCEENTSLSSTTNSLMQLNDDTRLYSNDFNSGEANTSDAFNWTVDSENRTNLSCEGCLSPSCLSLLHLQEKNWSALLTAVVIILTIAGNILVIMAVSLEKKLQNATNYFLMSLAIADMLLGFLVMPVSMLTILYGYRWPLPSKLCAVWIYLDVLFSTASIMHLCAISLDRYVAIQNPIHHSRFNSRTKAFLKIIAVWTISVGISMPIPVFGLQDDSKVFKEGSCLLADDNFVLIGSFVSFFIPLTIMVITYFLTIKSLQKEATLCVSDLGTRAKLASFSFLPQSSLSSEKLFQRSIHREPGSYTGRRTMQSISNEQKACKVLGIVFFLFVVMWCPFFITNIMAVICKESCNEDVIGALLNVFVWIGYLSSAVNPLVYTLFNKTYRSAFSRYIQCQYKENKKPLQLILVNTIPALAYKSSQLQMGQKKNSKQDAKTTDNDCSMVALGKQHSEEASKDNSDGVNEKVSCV
Description: (§1) 5-HT2 receptors are functionally coupled to specific G-proteins. Agonist activation of 5-HT2 G-protein coupled receptors results in the release of GDP from alpha-subunit (G alpha q or G alpha i) of the G-protein and the subsequent binding of GTP. The binding of the stable analog GTP-g-[^35S] is an indicator of receptor activation. Human cloned 5-HT2A, −2B, and −2C receptors were expressed in AV12 cells. GTP-g-[^35S] nucleotide exchange scintillation proximity assay (SPA) was used to measure binding as previously described ([14]).

h5-HT2B = molecular target: T2, h5-HT2B (Homo sapiens, UniProt P41595); test: GTP-γ-[35S] functional assay (SPA), AV12 cells; type: biochemical; conditions: GTPgs functional assay, human recombinant cell line
T2 construct: expressed in transfected cells; host or cells: AV12 cells
T2 sequence (P41595 whole entry): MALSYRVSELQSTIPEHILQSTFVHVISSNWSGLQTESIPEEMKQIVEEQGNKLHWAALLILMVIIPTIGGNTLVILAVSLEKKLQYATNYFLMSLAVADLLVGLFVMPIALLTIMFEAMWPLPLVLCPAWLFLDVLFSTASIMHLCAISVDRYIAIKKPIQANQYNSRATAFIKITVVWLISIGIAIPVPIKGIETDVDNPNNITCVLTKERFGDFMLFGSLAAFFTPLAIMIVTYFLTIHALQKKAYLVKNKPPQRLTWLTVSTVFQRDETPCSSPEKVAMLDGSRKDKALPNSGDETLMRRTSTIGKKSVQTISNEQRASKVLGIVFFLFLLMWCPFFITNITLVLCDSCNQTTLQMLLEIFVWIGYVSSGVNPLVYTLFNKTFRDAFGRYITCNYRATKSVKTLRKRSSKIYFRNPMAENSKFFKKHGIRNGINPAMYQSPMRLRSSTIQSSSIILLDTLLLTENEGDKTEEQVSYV
Description: as §1

h5-HT2C = molecular target: T3, h5-HT2C (Homo sapiens, UniProt P28335); test: GTP-γ-[35S] functional assay (SPA), AV12 cells; type: biochemical; conditions: GTPgs functional assay, human recombinant cell line
T3 construct: expressed in transfected cells; host or cells: AV12 cells
T3 sequence (P28335 33-458): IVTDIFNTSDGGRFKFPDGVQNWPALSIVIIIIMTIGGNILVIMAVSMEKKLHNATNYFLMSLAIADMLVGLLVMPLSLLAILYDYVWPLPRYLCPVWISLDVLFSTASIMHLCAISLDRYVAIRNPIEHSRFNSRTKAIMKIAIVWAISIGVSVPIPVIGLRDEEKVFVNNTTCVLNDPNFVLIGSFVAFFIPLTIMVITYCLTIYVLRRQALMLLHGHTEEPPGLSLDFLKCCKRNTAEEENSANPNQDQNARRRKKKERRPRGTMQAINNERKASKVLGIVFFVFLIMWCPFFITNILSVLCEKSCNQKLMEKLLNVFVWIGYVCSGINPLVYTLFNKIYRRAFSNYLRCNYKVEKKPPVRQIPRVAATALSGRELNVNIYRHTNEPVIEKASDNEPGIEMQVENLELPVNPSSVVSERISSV
Description: as §1

Male, NIH Swiss mice [7] = test: Locomotor activity; conditions: 12/dose group
[8] = fluoxetine 30 mg/kg with SB-242084 3 mg/kg

## CN(C)CCCN1c2ccccc2CCc2ccc(Cl)cc21 [Clomipramine, clomipramine]
Male, Wistar rats [1]; given alone
  Effect on excessive drinking / amount of water consumed: decreased
  Effect on number of responses emitted (lever pressing for food): decreased

## C[C@H](N)Cc1ccccc1 [D-amphetamine]
Male, Wistar rats [1]; given alone
  Effect on excessive drinking / amount of water consumed: decreased
  Effect on number of responses emitted (lever pressing for food): increased

## CNCCC(Oc1ccc(C(F)(F)F)cc1)c1ccccc1 (stereo not shown) [Fluoxetine, fluoxetine]
Male, Wistar rats [1]; 10 mg/kg given alone
  Responses (Rsp) in percent of controls: 102.3% of controls
  Water consumed (H2O) in percent of controls: 66.7% of controls
Male, Wistar rats [1]; 30 mg/kg, i.p., given alone
  Responses (Rsp) in percent of controls: 6% of controls
  Water consumed (H2O) in percent of controls: 8% of controls
Male, Wistar rats [1]; Dunnett p < 0.05
  Dose at which statistically significant reduction of excessive drinking was detected: 20 mg/kg
  Dose at which statistically significant reduction of food-maintained responding was detected: 20 mg/kg
Male, Wistar rats [1]; fluoxetine 10 mg/kg with SB-242084 3 mg/kg
  Water consumed (H2O) in percent of controls: 99.2% of controls
Male, Wistar rats [1]; [8]
  Responses (Rsp) in percent of controls: 92.7% of controls
  Water consumed (H2O) in percent of controls: 101.4% of controls
Male, NIH Swiss mice [2]; male, NIH Swiss, mouse, in vivo, 2 min
  Rotarod, minimal effective dose: >30 milligrams per kilogram
Male, NIH Swiss mice [3]
  Marble-burying, minimal effective dose: 10 milligrams per kilogram
Male, NIH Swiss mice [4]
  Locomotor activity, minimal effective dose: >10 milligrams per kilogram
Male, NIH Swiss mice [5]
  Nestlet-shredding, minimal effective dose: 10 milligrams per kilogram

## CC(C)NCC(O)c1ccc(O)c(O)c1 (stereo not shown) [Isoproterenol, isoproterenol, reference compound]
Male, Wistar rats [6]
  Increase of water consumption relative to vehicle-treated rats: 432%

## COc1cccc([C@H](O)C2CCN(CCc3ccc(F)cc3)CC2)c1OC [MDL100907, (R)-(2,3-dimethoxyphenyl)-[1-[2-(4-fluorophenyl)ethyl]-4-piperidyl]methanol]
Male, Wistar rats [1]
  Effect of antagonist on the decrease in excessive water consumption produced by CPD 1: did not significantly alter

## CCCC(C)C1(CC)C(=O)NC(=O)NC1=O (stereo not shown) [Pentobarbital, pentobarbital]
Male, NIH Swiss mice [2]; mice, 12/dose group
  Rotarod, minimal effective dose: 5.6 milligrams per kilogram
Male, NIH Swiss mice [3]
  Marble-burying, minimal effective dose: >17 milligrams per kilogram
Male, NIH Swiss mice [5]
  Nestlet-shredding, minimal effective dose: 10 milligrams per kilogram

## C[C@H](N)Cn1ccc2cc(F)c(Cl)cc21 [Ro 60-0175]
h5-HT2A
  EC50: 130 ± 1 nM
  Emax: 59 ± 1%
h5-HT2B
  EC50: 57 ± 1 nM
  Emax: 58 ± 1%
h5-HT2C
  EC50: 5.1 ± 1 nM
  Emax: 104 ± 1%
Male, Wistar rats [1]; given alone
  Effect on excessive drinking / amount of water consumed: significantly decreased
  Effect on number of responses emitted (lever pressing for food): significantly decreased
Male, NIH Swiss mice [2]; mice, 12/dose group
  Rotarod, minimal effective dose: greater than 1 milligrams per kilogram
Male, NIH Swiss mice [2]; mice, 12/dose group, listed as RO 60-0175
  Rotarod, minimal effective dose: >10 milligrams per kilogram
Male, NIH Swiss mice [3]
  Marble-burying, minimal effective dose: 0.1 milligrams per kilogram
Male, NIH Swiss mice [5]
  Nestlet-shredding, minimal effective dose: less than 1 milligrams per kilogram
Male, NIH Swiss mice [5]; listed as RO 60-0175
  Nestlet-shredding, minimal effective dose: <1 milligrams per kilogram
Male, NIH Swiss mice [7]
  Locomotor activity, minimal effective dose: greater than 10 milligrams per kilogram
Male, NIH Swiss mice [7]; listed as RO 60-0175
  Locomotor activity, minimal effective dose: >1 milligrams per kilogram

## Cc1cc2c(cc1Cl)N(C(=O)Nc1ccc(Oc3cccnc3C)nc1)CC2 [SB242084, 6-chloro-5-methyl-N-{6-[(2-methylpyridin-3-yl)oxy]pyridin-3-yl}indoline-1-carboxamide]
Male, Wistar rats [1]; 3 mg/kg given alone
  Responses in percent of control: 191.2% of controls
  Water consumed (H2O) in percent of control: 112.1% of controls
Male, Wistar rats [1]
  Effect of antagonist on the decrease in excessive water consumption produced by CPD 1: prevented
Male, Wistar rats [1]; SB242084 3 mg/kg, D-amphetamine 3 mg/kg
  Effect of antagonist on the effects of D-amphetamine: did not alter
Male, Wistar rats [1]; SB-242084 3 mg/kg, fluoxetine 30 mg/kg
  Effect of antagonist on the decreases in water consumption and response output produced by fluoxetine: significantly attenuated
Male, Wistar rats [1]; given alone
  Effect on excessive drinking / amount of water consumed: did not significantly affect
  Effect on number of responses emitted (lever pressing for food): increased

## Clc1cccc(N2CCNCC2)c1 [mCPP, meta-chlorophenylpiperazine, reference compound]
h5-HT2A
  Emax: 88 ± 2%
h5-HT2B
  Emax: 84 ± 2%
h5-HT2C
  Emax: 99 ± 2%
Male, Wistar rats [1]; given alone
  Effect on excessive drinking / amount of water consumed: significantly decreased
  Effect on number of responses emitted (lever pressing for food): significantly decreased

Reference: publication PMC5438973 (Frontiers in Psychiatry, 2017)
